Data reported in patent publication US12290500B2, “Anaplerotic agents for treatment of disorders of propionate and long chain fat metabolism” (University of Pittsburgh—Of the Commonwealth System of …, priority 2016, dated 2025).

Tested on: PCC deficient cells
Protocol: Control cells and PCC cells obtained from patients with PA and generated through CRISPR/CAS9 technology are grown in media with and without succinate supplementation and the metabolite profile of cell extracts is determined by metabolomic techniques. First, PCC deficient cells are grown in T-25 flasks in standard DMEM medium with and without supplemental succinate (0.1-2 mmol/L). Cells are harvested, lysed by sonication and intracellular concentrations of TCA cycle intermediates are measured by liquid chromatography-mass spectrometry (LC-MS)/MS. Next, flux through the TCA cycle is measured by incorporation of radiolabel from uniformly labeled ^14C-palmitate into TCA cycle intermediates after incubation with PPC deficient and control cells. PCC deficient cell lines are grown in DMEM complete media and transferred to 6-well plates at a seeding density of ˜200,000 cells/well. The media in the wells is changed after 24 hours to DMEM media containing 5% dialyzed fetal bovine serum (FBS). After approximately one hour, the first time point (180 minutes) receives DMEM 5% dialyzed FBS containing universally labeled palmitate with ^13C […]. The cells are incubated at 37° C., 4% CO2 for the following time points: 180 minutes, 60 minutes, 30 minutes, 10 minutes and 0 minutes. The 0 minute time point receives no isotopic labeling.

O=C(O)CCC(=O)O [succinate]
decreased level of TCA cycle intermediates (cell lines from patients with PA or MMA, succinate supplementation 0.1-2 mmol/L): expected to be reversed
impaired incorporation of label from palmitate through the TCA cycle into protein (succinate supplementation): expected to be reversed
